According to patent US20020115104A1, “MMSC2 - an MMAC1 interacting protein” (priority 1998, published 2002):
*: point of attachment. Biotin = O=C1N[C@H]2[C@H](CS[C@H]2CCCCC(=O)*)N1

How the values were obtained:
MMSC2 PDZ domain 12 (P3) = target: T1, MMSC2 PDZ domain 12 (P3) (Homo sapiens, UniProt O75970); experiment: PDZ binding assay (ELISA), PDZ domain 12; conditions: immobilized GST-PDZ domain 12 (P3); biotinylated peptide pre-bound to streptavidin-alkaline phosphatase; colorimetric phosphatase assay
T1 construct: 1828-1913; made in house; host or cells: E. coli
T1 sequence (O75970 1828-1913 isoform O75970-3): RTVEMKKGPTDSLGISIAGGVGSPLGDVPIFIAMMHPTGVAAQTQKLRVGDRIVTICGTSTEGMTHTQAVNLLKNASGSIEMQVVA
Description: (§1) cDNAs encoding each of the MMSC2 PDZ domains (amino acid residues identified in Table 1), and any desired control proteins, were generated by PCR and subcloned as glutathione S-transferase (GST) fusions in pGEX vectors (Pharmacia). After sequencing to confirm expression construct integrity, the resulting clones were expressed in E. coli and the desired fusion proteins isolated with glutathione-agarose and recovered with glutathione elution. These fusion proteins or control proteins were then adsorbed to different wells of a 96-well ELISA plate and remaining sites blocked with BSA. Synthetic commercially synthesized peptides encoding the desired PDZ-binding domain (i.e., the 16 C-terminal amino acids of MMAC1, or the C-terminal peptide sequences of interacting proteins identified by the approach of Example 2, or the C-terminal peptide sequences identified by the approach of Example 3), or a control peptide, and biotinylated at the amino-terminus, were pre-bound to streptavidin-alkaline phosphatase in a 4:1 molar ratio. […] Bound peptide/streptavidin-alkaline phosphatase complex was then quantitated by a colorimetric phosphatase assay read on a 96-well plate reader. […]
(§2) The relative affinity of each of the 13 PDZ domains encoded by MMSC2 for an MMAC1 C-terminal PDZ peptide as measured by an ELISA assay is set forth in Table 2.

MMSC2 PDZ domain 11 (P2) = target: T2, MMSC2 PDZ domain 11 (P2) (Homo sapiens, UniProt O75970); experiment: PDZ binding assay (ELISA), PDZ domain 11; conditions: immobilized GST-PDZ domain 11 (P2); biotinylated peptide pre-bound to streptavidin-alkaline phosphatase; colorimetric phosphatase assay
T2 construct: 1691-1772; made in house; host or cells: E. coli
T2 sequence (O75970 1691-1772 isoform O75970-3): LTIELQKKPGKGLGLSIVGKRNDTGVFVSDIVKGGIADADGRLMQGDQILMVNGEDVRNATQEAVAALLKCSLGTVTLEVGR
Description: as §1, §2

MMSC2 PDZ domain 7 (P9) = target: T3, MMSC2 PDZ domain 7 (P9) (Homo sapiens, UniProt O75970); experiment: PDZ binding assay (ELISA), PDZ domain 7; conditions: for A405: immobilized GST-PDZ domain 7 (P9), biotinylated peptide pre-bound to streptavidin-alkaline phosphatase, colorimetric phosphatase assay
T3 construct: 1150-1241; made in house; host or cells: E. coli
T3 sequence (O75970 1150-1241 isoform O75970-3): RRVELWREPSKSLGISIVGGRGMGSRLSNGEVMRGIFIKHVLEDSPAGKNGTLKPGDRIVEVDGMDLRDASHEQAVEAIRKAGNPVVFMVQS
Description: (§3) cDNAs encoding each of the MMSC2 PDZ domains (amino acid residues identified in Table 1), and any desired control proteins, were generated by PCR and subcloned as glutathione S-transferase (GST) fusions in pGEX vectors (Pharmacia). After sequencing to confirm expression construct integrity, the resulting clones were expressed in E. coli and the desired fusion proteins isolated with glutathione-agarose and recovered with glutathione elution. These fusion proteins or control proteins were then adsorbed to different wells of a 96-well ELISA plate and remaining sites blocked with BSA. Synthetic commercially synthesized peptides encoding the desired PDZ-binding domain (i.e., the 16 C-terminal amino acids of MMAC1, or the C-terminal peptide sequences of interacting proteins identified by the approach of Example 2, or the C-terminal peptide sequences identified by the approach of Example 3), or a control peptide, and biotinylated at the amino-terminus, were pre-bound to streptavidin-alkaline phosphatase in a 4:1 molar ratio. The biotinylated peptide streptavidin-alkaline phosphatase complexes were then blocked with free biotin. These pre-bound peptide streptavidin-alkaline phosphatase complexes were then incubated with the immobilized PDZ domains in wash buffer containing PBS, BSA and triton-X100. Unbound material was removed with repeated washes. Bound peptide/streptavidin-alkaline phosphatase complex was then quantitated by a colorimetric phosphatase assay read on a 96-well plate reader. The following peptides were used in the initial study:
as §2

MMSC2 PDZ domain 6 (P11) = target: T4, MMSC2 PDZ domain 6 (P11) (Homo sapiens, UniProt O75970); experiment: PDZ binding assay (ELISA), PDZ domain 6; conditions: immobilized GST-PDZ domain 6 (P11); biotinylated peptide pre-bound to streptavidin-alkaline phosphatase; colorimetric phosphatase assay
T4 construct: 1007-1090; made in house; host or cells: E. coli
T4 sequence (O75970 1007-1090 isoform O75970-3): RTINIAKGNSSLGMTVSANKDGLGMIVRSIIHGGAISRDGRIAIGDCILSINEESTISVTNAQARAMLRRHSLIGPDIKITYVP
Description: as §1, §2

MMSC2 PDZ domain 5 (P12) = target: T5, MMSC2 PDZ domain 5 (P12) (Homo sapiens, UniProt O75970); experiment: PDZ binding assay (ELISA), PDZ domain 5; conditions: immobilized GST-PDZ domain 5 (P12); biotinylated peptide pre-bound to streptavidin-alkaline phosphatase; colorimetric phosphatase assay
T5 construct: 699-785; made in house; host or cells: E. coli
T5 sequence (O75970 699-785 isoform O75970-3): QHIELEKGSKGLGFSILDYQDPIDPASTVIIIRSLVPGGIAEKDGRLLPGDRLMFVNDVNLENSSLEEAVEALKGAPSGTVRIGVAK
Description: as §1, §2

MMSC2 PDZ domain 10 (P1) = target: T6, MMSC2 PDZ domain 10 (P1) (Homo sapiens, UniProt O75970); experiment: PDZ binding assay (ELISA), PDZ domain 10; conditions: for A405: immobilized GST-PDZ domain 10 (P1), biotinylated peptide pre-bound to streptavidin-alkaline phosphatase, colorimetric phosphatase assay
T6 construct: 1595-1677; made in house; host or cells: E. coli
T6 sequence (O75970 1595-1677 isoform O75970-3): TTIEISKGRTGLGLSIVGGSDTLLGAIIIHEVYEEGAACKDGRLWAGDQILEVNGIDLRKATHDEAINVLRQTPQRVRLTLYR
Description: as §3, §2

MMSC2 PDZ domain 8 (P8) = target: T7, MMSC2 PDZ domain 8 (P8) (Homo sapiens, UniProt O75970); experiment: PDZ binding assay (ELISA), PDZ domain 8; conditions: immobilized GST-PDZ domain 8 (P8); biotinylated peptide pre-bound to streptavidin-alkaline phosphatase; colorimetric phosphatase assay
T7 construct: 1316-1398; made in house; host or cells: E. coli
T7 sequence (O75970 1316-1398 isoform O75970-3): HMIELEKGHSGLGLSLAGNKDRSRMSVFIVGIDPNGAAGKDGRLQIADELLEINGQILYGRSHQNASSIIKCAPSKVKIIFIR
Description: as §1, §2

MMSC2 PDZ domain 13 (P4) = target: T8, MMSC2 PDZ domain 13 (P4) (Homo sapiens, UniProt O75970); experiment: PDZ binding assay (ELISA), PDZ domain 13; conditions: for A405: immobilized GST-PDZ domain 13 (P4), biotinylated peptide pre-bound to streptavidin-alkaline phosphatase, colorimetric phosphatase assay
T8 construct: 1953-2037; made in house; host or cells: E. coli
T8 sequence (O75970 1953-2037 isoform O75970-3): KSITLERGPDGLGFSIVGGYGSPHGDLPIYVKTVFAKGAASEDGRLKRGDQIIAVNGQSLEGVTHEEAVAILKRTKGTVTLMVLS
Description: as §3, §2

MMSC2 PDZ domain 1 (P15) = target: T9, MMSC2 PDZ domain 1 (P15) (Homo sapiens, UniProt O75970); experiment: PDZ binding assay (ELISA), PDZ domain 1; conditions: immobilized GST-PDZ domain 1 (P15); biotinylated peptide pre-bound to streptavidin-alkaline phosphatase; colorimetric phosphatase assay
T9 construct: 136-222; made in house; host or cells: E. coli
T9 sequence (O75970 136-222 isoform O75970-3): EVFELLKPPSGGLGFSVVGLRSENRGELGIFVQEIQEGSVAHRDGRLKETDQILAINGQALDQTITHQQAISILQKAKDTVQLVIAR
Description: as §1, §2

MMSC2 PDZ domain 9 (P7) = target: T10, MMSC2 PDZ domain 9 (P7) (Homo sapiens, UniProt O75970); experiment: PDZ binding assay (ELISA), PDZ domain 9; conditions: immobilized GST-PDZ domain 9 (P7); biotinylated peptide pre-bound to streptavidin-alkaline phosphatase; colorimetric phosphatase assay
T10 construct: 1439-1529; made in house; host or cells: E. coli
T10 sequence (O75970 1439-1529 isoform O75970-3): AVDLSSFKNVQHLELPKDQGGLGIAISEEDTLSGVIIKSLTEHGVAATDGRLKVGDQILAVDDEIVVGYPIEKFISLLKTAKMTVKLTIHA
Description: as §1, §2

MMSC2 PDZ domain 3 (P13) = target: T11, MMSC2 PDZ domain 3 (P13) (Homo sapiens, UniProt O75970); experiment: PDZ binding assay (ELISA), PDZ domain 3; conditions: immobilized GST-PDZ domain 3 (P13); biotinylated peptide pre-bound to streptavidin-alkaline phosphatase; colorimetric phosphatase assay
T11 construct: 376-461; made in house; host or cells: E. coli
T11 sequence (O75970 376-461 isoform O75970-3): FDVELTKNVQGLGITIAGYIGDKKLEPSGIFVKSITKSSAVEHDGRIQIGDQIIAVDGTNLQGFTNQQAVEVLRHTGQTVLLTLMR
Description: as §1, §2

MMSC2 PDZ domain 2 (P14) = target: T12, MMSC2 PDZ domain 2 (P14) (Homo sapiens, UniProt O75970); experiment: PDZ binding assay (ELISA), PDZ domain 2; conditions: immobilized GST-PDZ domain 2 (P14); biotinylated peptide pre-bound to streptavidin-alkaline phosphatase; colorimetric phosphatase assay
T12 construct: 256-335; made in house; host or cells: E. coli
T12 sequence (O75970 256-335 isoform O75970-3): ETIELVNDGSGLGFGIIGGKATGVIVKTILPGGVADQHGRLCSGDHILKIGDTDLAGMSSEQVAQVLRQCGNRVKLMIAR
Description: as §1, §2

MMSC2 PDZ domain 4 (P10) = target: T13, MMSC2 PDZ domain 4 (P10) (Homo sapiens, UniProt O75970); experiment: PDZ binding assay (ELISA), PDZ domain 4; conditions: immobilized GST-PDZ domain 4 (P10); biotinylated peptide pre-bound to streptavidin-alkaline phosphatase; colorimetric phosphatase assay
T13 construct: 555-632; made in house; host or cells: E. coli
T13 sequence (O75970 555-632 isoform O75970-3): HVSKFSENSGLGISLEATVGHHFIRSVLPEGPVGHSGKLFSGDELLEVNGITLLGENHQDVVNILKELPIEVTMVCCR
Description: as §1, §2

Substance	A405 (MMSC2 PDZ domain 12 (P3))	A405 (MMSC2 PDZ domain 11 (P2))	interaction of PDZ domain with MMAC1 (in words) (MMSC2 PDZ domain 7 (P9); PDZ domain number 7, 7 appearing stronger)	A405 (MMSC2 PDZ domain 7 (P9))	A405 (MMSC2 PDZ domain 6 (P11))	A405 (MMSC2 PDZ domain 5 (P12))	interaction of PDZ domain with MMAC1 (in words) (MMSC2 PDZ domain 10 (P1); PDZ domain number 10)	A405 (MMSC2 PDZ domain 10 (P1))	A405 (MMSC2 PDZ domain 8 (P8))	interaction of PDZ domain with MMAC1 (in words) (MMSC2 PDZ domain 13 (P4); PDZ domain number 13)	A405 (MMSC2 PDZ domain 13 (P4))	A405 (MMSC2 PDZ domain 1 (P15))	A405 (MMSC2 PDZ domain 9 (P7))	A405 (MMSC2 PDZ domain 3 (P13))	A405 (MMSC2 PDZ domain 2 (P14))	A405 (MMSC2 PDZ domain 4 (P10))
Biotin-ENEPFDEDQHTQITKV-OH [MMAC1]	0.003	0.012	interact	0.667	0.016	0.000	interact	0.174	0.006	interact	0.456	0.011	0.017	0.006	0.001	0.024
Biotin-SGSGILAPPVPPRNTR-OH [SH3, reference compound]	0.011	0.009		0.006	0.017	0.005		0.002	0.008		0.006	0.007	0.009	0.008	0.006	0.010
